Measurements: patent US20240423245A1, “CANNABINOIDS FOR IMPROVEMENT OF P[…] LIVESTOCK” (Kansas State University Research Foundation, priority 2021, published 2024)
“And” between values parts separate entries of the source, which are not always exact repeats. Equal entries are not always repeated. Where two headings read alike, the source gives them in different places.

Tests used:
[1] = Plasma cannabinoid concentrations and pharmacokinetics during 14-day industrial hemp feeding; format: in vivo, Holstein cattle; details: for detection in plasma: HEMP cattle, doses 0.005 mg/kg CBDVA, 0.2 mg/kg CBGA, 0.1 mg/kg THCA-A; for number of plasma samples in which cannabinoid was detected: of 288 samples from HEMP (IH) cattle; for half-life / Cmax / AUC(0-inf) / AUC(0-t) / MRT inf / Tmax: Holstein, bovine; for MRT inf: read-out: MRT0-∞
Procedure: Cattle in the HEMP group were individually fed 25 g IH mixed in 200 g grain placed in rubber feed pans at 07:00 daily for 14 days. The IH was fed at 25 g per animal per day to target a mean dose of CBDA of 5.5 mg/kg. Daily IH feeding was after the daily blood sample for cattle in the HEMP group.
Cattle were blood sampled at predetermined time points from the jugular or coccygeal veins using a needle and vacutainer. Whole blood was collected into tubes containing sodium heparin, EDTA, sodium citrate, and no additives. Blood samples from the HEMP cattle were obtained prior to initial IH feeding (day −1) and 8 and 12 h post-initial IH feeding; then every 12 h (prior to the next IH feeding); then (starting 12 hours after the last IH feeding) every 24 hours for 5 samples or 108 h after the last IH feeding Cattle in the CNTL group were blood sampled −24 h prior to the initial IH feeding; and on day 7, 14 and 19 post-initial IH feeding.
Plasma cannabinoid concentrations were determined using UPLC-MS methods. All solvents used such as methanol, acetonitrile, isopropanol, formic acid were LC-MS grade. Cannabinoids standards were purchased in individual solutions in methanol (Cerilliant Corporation, Round Rock, TX), including: (±)-cis-11-Nor-9-carboxy-A 9-tetrahydrocannabinol glucuronide (THC-glu), (±)-11-Hydroxy-Δ9-tetrahydrocannabinol (THC-OH), cannabidivarinic acid (CBDVA), cannabidivarin (CBDV), cannabidiol (CBD), cannabidiolic acid (CBDA), Δ9-Tetrahydrocannabinolic acid A (THCA-A), cannabigerolic acid (CBGA), cannabigerol (CBG), Δ9-tetrahydrocannabinol (9-THC), Δ8-tetrahydrocannabinol (8-THC), cannabichromene (CBC), Δ9-tetrahydrocannabivarin (THCV), cannabichromenic Acid (CBCA), cannabinol (CBN), (−)-11-nor-9-Carboxy-Δ9-tetrahydrocannabinol (THC-acid). Cannabinoid analogs used as internal standards were also purchased in solution in methanol at 100 μg/ml (Cerilliant Corporation, Round Rock, TX): (±)-cis-11-Nor-9-carboxy-Δ9-tetrahydrocannabinol glucuronide (THC-glu-d3), Cannabidiol-d3 (CBD-d3), Δ9-Tetrahydrocannabinol-d3 (9-THC-d3), (±)-11-nor-9-Carboxy-D9-tetrahydrocannabinol-d9 (THC-acid-d9), (±)-11-Hydroxy-Δ9-tetrahydrocannabinol-d3 (THC-OH-d3), Cannabichromene-do (CBC-d9). All cannabinoids standards were kept in the freezer at −20° C. On the day of analysis, plasma samples were allowed to thaw. Plasma (samples, quality controls or negative control plasma) were mixed with the internal standard mixture at 200 ng/mL (not added to the negative control sample) and acetonitrile with 0.1% formic acid to precipitate the proteins. The mixture was vortexed for 5 seconds and centrifuge for 5 minutes at 7,000 g. The supernatant was then diluted with ultra-pure […] water before clean-up. The sample was loaded on a solid phase extraction plate using positive pressure nitrogen. Each well was washed twice with 0.25 mL of a mixture of methanol-water (25:75). The compounds were eluted with two-25 μL aliquots of acetonitrile-methanol (90:10) and diluted with 50 μL of water before analysis.
Cannabinoid analysis was performed using an Acquity H UPLC and a TQ-S triple quadrupole mass spectrometer (Waters Corp., Milford, MA). The chromatographic separation was performed with a UPLC column (Eclipse Plus C18, Agilent Technologies, Santa Clara, CA) 100×2.1 mm, 1.8μ, heated at 55° C. The flow rate was set at 0.5 mL/min, the mobile phase consisted of a gradient of acetonitrile (B) and water containing 0.1% formic acid (A) as follow: 0 min: 60% B, 6.50 min: 86% B, 7.50 min-9 min: 100% B, 9.01 m in 12 min: 60% B. The total run time was 12 min. The injection volume was 5 μL. The data acquisition was performed by electrospray ionization in positive and negative mode using multiple reaction monitoring. Linear regression with a weighing factor of 1/X was used and accepted if the coefficient of correlation R^2 was >0.99. Calibration curves were linear from 0.1 to 100 ng/ml for all cannabinoids. […]

[2] = cited from earlier work
[3] = plasma, po, 5.5 mg/kg, geometric mean, IH fed 14 days, target dose 5.5 mg/kg CBDA, n = 8
[4] = plasma, po, 5.5 mg/kg, median, IH fed 14 days, target dose 5.5 mg/kg CBDA, n = 8
[5] = geometric mean, IH fed 14 days, target dose 5.5 mg/kg CBDA, n = 8
[6] = median, IH fed 14 days, target dose 5.5 mg/kg CBDA, n = 8
[7] = plasma, initial hemp feeding period

Q: Which detection in plasma [1] does the source give for `C=C(C)[C@@H]1CCC(C)=C[C@H]1c1c(O)cc(CCC)c(C(=O)O)c1O` [CBDVA, cannabidivarinic acid] here?
A: detected in the plasma of all cattle

Q: For `CCCCCc1cc(O)c(C/C=C(\C)CCC=C(C)C)c(O)c1C(=O)O` [CBGA, cannabigerolic acid], which detection in plasma [1] is on record?
A: detected in the plasma of all cattle

Q: With `CCCCCc1cc2c(c(O)c1C(=O)O)[C@@H]1C=C(C)CC[C@H]1C(C)(C)O2` [THCA-A, tetrahydrocannabinolic acid A] as the compound, how does the detection in plasma [1] read?
A: detected in the plasma of all cattle

Q: For `CCCCCc1cc2c(c(O)c1C(=O)O)C=CC(C)(CCC=C(C)C)O2` (stereo not shown) [CBCA, cannabichromenic acid], which “number of plasma samples in which cannabinoid was detected” value [1] is on record?
A: 93

Q: Which half-life ([1]; plasma, oral, 5.5 mg/kg, geometric mean, IH fed 14 days, target dose 5.5 mg/kg CBDA, n = 8, read-out: T1/2 (terminal half-life) (converted)) does the source give for `C=C(C)[C@@H]1CCC(C)=C[C@H]1c1c(O)cc(CCCCC)c(C(=O)O)c1O` [CBDA, cannabidiolic acid] here?
A: 15 h

Q: And the Cmax ([1]; plasma, oral, 5.5 mg/kg, geometric mean, initial hemp feeding period, target dose 5.5 mg/kg CBDA, n = 8)?
A: 22 ng/mL

Q: And the AUC(0-inf) [1, 3]?
A: 13600 ng·h/mL

Q: And the AUC(0-t) [1, 3]?
A: 13500 ng·h/mL

Q: And the MRT inf [1, 3]?
A: 822 h

Q: What about the half-life ([1]; plasma, po, 5.5 mg/kg, geometric mean, IH fed 14 days, target dose 5.5 mg/kg CBDA, n = 8, read-out: T1/2 (terminal half-life) (converted)) of the same compound?
A: 15.3 h

Q: What about the Tmax ([1]; plasma, po, 5.5 mg/kg, geometric mean, after the initial IH feeding, target dose 5.5 mg/kg CBDA, n = 8) of the same compound?
A: 16.7 h

Q: And the Cmax ([1]; plasma, po, 5.5 mg/kg, geometric mean, initial hemp feeding period, target dose 5.5 mg/kg CBDA, n = 8)?
A: 22.1 ng/mL

Q: What about the AUC(0-inf) [1, 4] of the same compound?
A: 13600 ng·h/mL

Q: And the AUC(0-t) [1, 4]?
A: 13500 ng·h/mL

Q: And the Cmax [1, 4]?
A: 22.2 ng/mL

Q: What about the Tmax [1, 4] of the same compound?
A: 24 h

Q: And the MRT inf [1, 4]?
A: 772 h

Q: What about the half-life ([1]; plasma, po, 5.5 mg/kg, median, IH fed 14 days, target dose 5.5 mg/kg CBDA, n = 8, read-out: T1/2 (converted)) of the same compound?
A: 14.8 h

Q: What about the “time to plasma steady state concentrations” value ([1]; daily IH administration, visual inspection of the data) of the same compound?
A: approximately 7 days

Q: What about the “Accumulation (index/ratio)” value ([1]; geometric mean / mean, 14-day feeding period, target dose 5.5 mg/kg CBDA, n = 8, 5.5 mg/kg) of the same compound?
A: 1.5 and 1.52

Q: And the AUC extrapolated [1, 5]?
A: 0.38%

Q: What about the λz [1, 5] of the same compound?
A: 0.05 h⁻¹

Q: What about the AUC extrapolated [1, 6] of the same compound?
A: 0.49%

Q: And the Accumulation [1, 6]?
A: 1.49

Q: And the λz [1, 6]?
A: 0.05 h⁻¹

Q: And the “geometric mean minimum concentration” value [1, 7]?
A: 12.3 ng/mL

Q: What about the “time of minimum concentration after the initial IH feeding” value [1, 7] of the same compound?
A: 9.3 h

Q: What about the “maximum CBDA concentration (Cmax), previously reported” value ([2]; earlier published study) of the same compound?
A: 72.7 ng/mL

Q: And the “terminal half-life, previously published” value ([2]; earlier published study)?
A: 14 h

Q: What about the “time of peak concentrations post-exposure” value ([2]; single oral dosing of IH) of the same compound?
A: 12 to 24 h

Q: With `C=C(C)[C@@H]1CCC(C)=C[C@H]1c1c(O)cc(CCCCC)cc1O` [CBD, cannabidiol, reference compound] as the compound, how does the “number of plasma samples in which cannabinoid was detected” value [1] read?
A: 159
